# Source: patent publication US11249070B2, “Anti-cancer drug assessment method” (TOPPAN PRINTING CO., LTD., priority 2016, dated 2022)
# How the values were obtained:
# [1] = system: human lung adenocarcinoma cell line A549; assay: CNT with 5-FU with or without bevacizumab, NHDF/HUVEC cell structure, flow cytometer (Example 11); format: cell-based; details: 3D (NHDF, HUVEC), bevacizumab 2 μg per well in the combination, 72 hours
# Description: (§1) Thereafter, 400 μL of Fixation/Permilization solution (554722, produced by BD Bioscience) was added for fixation at 4° C. for 30 minutes, and the liquid component was removed. Then, 400 μL of Perm/Wash buffer attached to the kit was added, and centrifugation was performed at room temperature at 1120×g for 5 minutes. Thereafter, a primary antibody Monoclonal Mouse Anti-human Cytokeratin 7 (M7018, produced by DAKO) diluted with 5% FBS-containing PBS was added and allowed to react at 4° C. for 30 minutes. Then, the liquid component was removed, and washing was performed twice using Perm/Wash buffer attached to the kit. A secondary antibody Goat anti-Mouse IgG1 Cross-Adsorbed Secondary Antibody, Alexa Fluor 546 (A-11030, produced by Thermo Fischer Scientific) diluted with 5% FBS-containing PBS was added and allowed to react at 4° C. for 30 minutes. Thereafter, the liquid component was removed, washing was performed twice using Perm/Wash buffer attached to the kit, and the resultant was resuspended in 350 μL of 5% FBS-containing PBS.
# (§2) The number of cells emitting fluorescence in the suspension after fixation and staining was counted as viable cancer cells. The cell count was performed using a flow cytometer (produced by Sony).
# [2] = system: human lung adenocarcinoma cell line A549; assay: CNT with 5-FU with or without bevacizumab, lung stromal cells NHLF/HMVEC-L, flow cytometer (Example 10); format: cell-based; details: 5-FU 100 μM, bevacizumab 2 μg per well in the combination, 72 hours
# Description: as §1, §2
# HCT116 = assay: CNT with 5-FU with or without bevacizumab, 2D, spheroid, 3D (Example 5); format: cell-based, human; details: bevacizumab 2 μg per well in the combination, 72 hours
# HT29 = assay: as above; format: cell-based, human; details: bevacizumab 2 μg per well in the combination, 72 hours
# Text: Moreover, for comparison, in place of the above cell structures, structures were produced by culturing cancer cells so as to form a single layer in a general culture container (2D method), and spheroids were produced by spheroid culture of a mixture of 2×10^6 NHDF, 3×10^4 HUVEC, and 2×10^4 cancer cells (spheroid method).
structure (smiles),measurement,setting,value
O=c1[nH]cc(F)c(=O)[nH]1 [5-FU],CNT (%) Average value,[1]; 5-FU 100 μM,28.8%
same,CNT (%) Average value,[1]; 5-FU 1 mM,7.7%
same,CNT (%) Average value,[2]; 2D,37.7%
same,CNT (%) Average value,"[2]; 3D (NHLF, HMVEC-L)",72.9%
same,CNT (%) Average value,"HCT116; 2D, 5-FU 100 μM",38.9%
same,CNT (%) Average value,"HCT116; 2D, 5-FU 1 mM",15.3%
same,CNT (%) Average value,"HCT116; 3D, 5-FU 100 μM",86.9%
same,CNT (%) Average value,"HCT116; Spheroid, 5-FU 100 μM",62.3%
same,CNT (%) Average value,"HCT116; Spheroid, 5-FU 1 mM",27.7%
same,CNT (%) Average value,"HT29; 2D, 5-FU 100 μM",54.2%
same,CNT (%) Average value,"HT29; 2D, 5-FU 1 mM",25.8%
same,CNT (%) Average value,"HT29; 3D, 5-FU 1 mM",75.0%
same,CNT (%) Average value,"HT29; Spheroid, 5-FU 100 μM",57.5%
same,CNT (%) Average value,"HT29; Spheroid, 5-FU 1 mM",44.8%
